The results in this text go back to ChEMBL document CHEMBL3217562, “N-Substituted salicylamides as selective malaria parasite dihydroorotate dehydrogenase inhibitors” (Medchemcomm, 2011).

Each structure is given as a SMILES string.

Assay [1] concerns the target T1, Dihydroorotate dehydrogenase (quinone), mitochondrial (Homo sapiens, UniProt Q02127). The experiment in a line: Inhibition of N-terminal truncated human recombinant DHODH assessed as ubiquinone reduction to 2,6-dichloroindophenol at 10 uM by spectrophotometric analysis relative to control.
For assay [2], the target named is T2, Dihydroorotate dehydrogenase (Plasmodium falciparum) (UniProt Q54A96).
T2 sequence (whole entry): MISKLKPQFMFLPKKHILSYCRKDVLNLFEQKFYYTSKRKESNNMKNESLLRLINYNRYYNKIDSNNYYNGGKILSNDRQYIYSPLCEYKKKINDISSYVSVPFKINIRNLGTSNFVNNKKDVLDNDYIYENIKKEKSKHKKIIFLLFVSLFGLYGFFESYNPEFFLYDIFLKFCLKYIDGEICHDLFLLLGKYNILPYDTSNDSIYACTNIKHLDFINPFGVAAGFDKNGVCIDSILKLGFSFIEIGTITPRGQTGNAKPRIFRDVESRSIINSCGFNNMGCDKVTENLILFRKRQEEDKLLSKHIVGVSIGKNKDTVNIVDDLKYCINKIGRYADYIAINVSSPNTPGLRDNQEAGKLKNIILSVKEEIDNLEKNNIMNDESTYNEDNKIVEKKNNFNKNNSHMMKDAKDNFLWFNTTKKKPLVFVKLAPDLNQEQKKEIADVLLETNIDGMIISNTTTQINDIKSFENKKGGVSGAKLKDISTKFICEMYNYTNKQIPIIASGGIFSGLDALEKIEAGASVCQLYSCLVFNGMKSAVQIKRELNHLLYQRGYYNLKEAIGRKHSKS
Description: Inhibition of N-terminal truncated Plasmodium falciparum recombinant DHODH assessed as ubiquinone reduction to 2,6-dichloroindophenol at 10 uM by spectrophotometric analysis relative to control.

The target of assay [3] is T3, Dihydroorotate dehydrogenase (Plasmodium falciparum, UniProt Q54A96).
T3 sequence (Q54A96 whole entry): T2 sequence (whole entry)
Description: Inhibition of N-terminal truncated Plasmodium falciparum recombinant DHODH assessed as ubiquinone reduction to 2,6-dichloroindophenol by spectrophotometric analysis.

Assay [4] concerns the target T1, Dihydroorotate dehydrogenase (quinone), mitochondrial. Description: Inhibition of N-terminal truncated human recombinant DHODH assessed as ubiquinone reduction to 2,6-dichloroindophenol by spectrophotometric analysis.
The nature of assay [5]: Selectivity ratio of IC50 for N-terminal truncated human recombinant DHODH to IC50 for N-terminal truncated Plasmodium falciparum recombinant DHODH.
In the next assay the test system is Plasmodium falciparum. The experiment in a line: Antiplasmodial activity against Plasmodium falciparum 3D7 after 48 hrs by [3H]-hypoxanthine incorporation assay. In kind it is functional, organism-based.
Assay [6] concerns the target T2, Dihydroorotate dehydrogenase (Plasmodium falciparum). Description: Inhibition of N-terminal truncated Plasmodium falciparum recombinant DHODH assessed as ubiquinone reduction to 2,6-dichloroindophenol at 100 uM by spectrophotometric analysis relative to control.

T1 sequence (Q02127 whole entry, the tested form may be a part): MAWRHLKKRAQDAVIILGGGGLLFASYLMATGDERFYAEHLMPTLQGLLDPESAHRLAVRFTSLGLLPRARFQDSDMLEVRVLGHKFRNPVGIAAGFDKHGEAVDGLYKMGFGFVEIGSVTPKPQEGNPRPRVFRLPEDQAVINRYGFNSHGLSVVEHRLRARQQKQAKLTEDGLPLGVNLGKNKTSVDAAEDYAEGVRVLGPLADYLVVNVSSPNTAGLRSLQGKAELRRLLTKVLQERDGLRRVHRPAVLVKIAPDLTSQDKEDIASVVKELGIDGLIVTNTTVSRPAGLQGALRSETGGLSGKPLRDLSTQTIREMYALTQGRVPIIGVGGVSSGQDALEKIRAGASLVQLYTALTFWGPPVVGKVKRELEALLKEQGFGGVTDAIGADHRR

With `COc1ccc(O)c(C(=O)NCCc2ccccc2)c1`, the inhibition in assay [1] and in assay [2] was 8% in each case.

As to `O=C(NCC(c1ccccc1)c1ccccc1)c1c(O)cccc1F`, the IC50 in assay [3] was over 125 µM.

For the compound `O=C(NCC(c1ccccc1)c1ccccc1)c1ccc(Cl)cc1O`, the figures for the IC50 in assay [3] and in assay [4] were 10.3 µM and over 200 µM, respectively.

With `O=C(NCCc1ccccc1)c1c(O)cccc1O`, the inhibition in assay [1] was found to be 15%; in assay [2] it was 17%.

As to `COc1ccc(C(=O)NCC(c2ccccc2)c2ccccc2)c(O)c1`, the figures for the IC50 in assay [3] and in assay [4] were 14 µM and over 200 µM, respectively.

In the case of `O=C(NCC(c1ccccc1)c1ccccc1)c1cccc(Cl)c1O`, the IC50 was 44.1 µM in assay [3] and over 200 µM in assay [4].

`O=C(NCC(c1ccccc1)c1ccccc1)c1cc(Br)ccc1O`: the figures for the half-inhibitory concentration (IC50) in assay [3] and in assay [4] were 10.8 µM and over 200 µM, respectively.

Regarding `O=C(NC(c1ccccc1)c1ccccc1)c1ccccc1O`, the inhibition came to 6% in assay [1] and 0% in assay [2].

In the case of `COc1ccc(O)c(C(=O)NCC(c2ccccc2)c2ccccc2)c1`, the results for the IC50 in assay [3] and in assay [4] were 18.1 µM and over 200 µM, respectively.

Turning to `COc1cccc(C(=O)NCCc2ccccc2)c1O`, the figures for the inhibition in assay [1] and in assay [2] were 8% and 7%, respectively.

On to `Cc1ccc(O)c(C(=O)NCC(c2ccccc2)c2ccccc2)c1`, for which the IC50 was 14.4 µM in assay [3] and over 200 µM in assay [4].

With `O=C(NCC(c1ccccc1)c1ccccc1)c1cc(Cl)cc(Cl)c1O`, the Ratio IC50 in assay [5] was over 20. Besides, the IC50 was 7 µM in assay [3] and over 200 µM in assay [4]. This compound showed an EC50 in the assay with Plasmodium falciparum of 170 µM.

As for `COc1cccc(O)c1C(=O)NCC(c1ccccc1)c1ccccc1`, the IC50 in assay [3] was over 125 µM.

For `O=C(NCC(c1ccccc1)c1ccccc1)c1cccc(F)c1O`, the results for the concentration for half-maximal inhibition (IC50) in assay [3] and in assay [4] were 26.1 µM and over 200 µM, respectively.

Take `O=C(NCCC(c1ccccc1)c1ccccc1)c1ccccc1O`: the inhibition is 21% in assay [1] and 22% in assay [2].

With `O=C(NCCCc1ccccc1)c1ccccc1O`, the values for the inhibition in assay [1] and in assay [2] were 7% and 39%, respectively.

For the compound `O=Cc1ccc(C(=O)NCC(c2ccccc2)c2ccccc2)c(O)c1`, the results for the IC50 in assay [3] and in assay [4] were 16.5 µM and over 200 µM, respectively.

Regarding `COc1cccc(C(=O)NCC(c2ccccc2)c2ccccc2)c1O`, the half-inhibitory concentration (IC50) in assay [3] is over 500 µM; in assay [4] it was over 200 µM.

In the case of `O=C(NCC(c1ccccc1)c1ccccc1)c1ccccc1O`, the IC50 in assay [3] is 21.2 µM; in assay [4], over 200 µM. Moreover, the inhibition in assay [1] amounted to 4%; in assay [2], 38%.

As to `O=C(NCCc1ccccc1)c1ccccc1O`, the figures for the inhibition in assay [1], in assay [2] and in assay [6] were 6%, 21% and 53%, respectively.

On to `O=C(NCCc1ccccc1)c1ccc(Cl)cc1O`, for which the inhibition came to 8% in assay [1] and 16% in assay [2].

`Cc1ccc(O)c(C(=O)NCCc2ccccc2)c1`: the inhibition in assay [1] was 4%; in assay [2], 16%.

For the compound `COc1ccc(C(=O)NCCc2ccccc2)c(O)c1`, the figures for the inhibition in assay [1] and in assay [2] were 5% and 9%, respectively.

Take `O=C(NCc1ccccc1)c1ccccc1O`: the inhibition was 4% in assay [1] and 16% in assay [2].

For the compound `O=C(NCC(c1ccccc1)c1ccccc1)c1cc(CO)ccc1O`, the Ratio IC50 in assay [5] is 18. Further, the IC50 in assay [3] was 8 µM; in assay [4] it was over 200 µM. Also, it took 53 µM to reach a half-maximal effect in the assay with Plasmodium falciparum (EC50).

Turning to `O=C(NCC(c1ccccc1)c1ccccc1)c1cccc(CO)c1O`, the IC50 in assay [3] was over 100 µM; in assay [4], over 200 µM.

Regarding `O=C(NCC(c1ccccc1)c1ccccc1)c1cc(Cl)ccc1O`, in assay [5], the Ratio IC50 stood at 18. Moreover, the values for the IC50 in assay [3] and in assay [4] were 9.1 µM and over 200 µM, respectively. In the assay on Plasmodium falciparum, this compound returned a concentration for a half-maximal effect (EC50) of 23 µM.

Turning to `O=C(NCC(c1ccccc1)c1ccccc1)c1ccc(F)c(F)c1O`, the Ratio IC50 in assay [5] was 18. For the same compound, the results for the IC50 in assay [3] and in assay [4] were 9.9 µM and 130 µM, respectively. Further, the 50% effective concentration (EC50) in the assay on Plasmodium falciparum was 100 µM.

For `O=C(NCCc1ccccc1)c1cccc(Cl)c1O`, the inhibition in assay [1] stood at 8%; in assay [2] it was 10%.

With `CN(CCc1ccccc1)C(=O)c1ccccc1O`, the inhibition in assay [1] and in assay [2] was 3% in each case.

For `O=C(NCCc1ccccc1)c1cc([N+](=O)[O-])ccc1O`, the values for the inhibition in assay [1] and in assay [2] were 26% and 5%, respectively.

Regarding `CC(CNC(=O)c1ccccc1O)c1ccccc1` (racemic), the inhibition came to 4% in assay [1] and 20% in assay [2].

As for `O=C(NCC(c1ccccc1)c1ccccc1)c1ccc(CO)cc1O`, the values for the half-maximal inhibitory concentration (IC50) in assay [3] and in assay [4] were 46.2 µM and over 200 µM, respectively.

For the compound `O=C(NCCc1ccccc1)c1cc(Cl)ccc1O`, the values for the inhibition in assay [1] and in assay [2] were 6% and 23%, respectively.

For orientation: inhibition means the relative decrease from the control value, in per cent. As usually defined, the IC50 is the concentration that inhibits the measured activity by half. Broadly, the EC50 is the concentration that produces a half-maximal response.
